Results taken from PubChem BioAssay (NCI).
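All cell lines were grown in 96-well plates and treated with compound for 48 hours. TGI: concentration producing complete growth inhibition.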

What was measured:
Experiment in all cases: NCI tumour cell line growth inhibition, 48 h
ACHN renal = tested on: ACHN renal
SF-268 CNS = tested on: SF-268 CNS
SF-295 CNS = tested on: SF-295 CNS
MDA-MB-231 breast = tested on: MDA-MB-231 breast
OVCAR-5 ovarian = tested on: OVCAR-5 ovarian
MOLT-4 leukemia = tested on: MOLT-4 leukemia
HL-60(TB) leukemia = tested on: HL-60(TB) leukemia
EKVX NSCLC = tested on: EKVX NSCLC
786-0 renal = tested on: 786-0 renal
BT-549 breast = tested on: BT-549 breast
HCC-2998 colon = tested on: HCC-2998 colon
CCRF-CEM leukemia = tested on: CCRF-CEM leukemia
NCI-H522 lung = tested on: NCI-H522 lung
NCI-H460 lung = tested on: NCI-H460 lung
OVCAR-8 ovarian = tested on: OVCAR-8 ovarian
A549 NSCLC = tested on: A549 NSCLC
SR leukemia = tested on: SR leukemia
HOP-92 NSCLC = tested on: HOP-92 NSCLC
A498 renal = tested on: A498 renal
T-47D breast = tested on: T-47D breast

SMILES | TGI (ACHN renal) [µM] | TGI (SF-268 CNS) [µM] | TGI (SF-295 CNS) [µM] | TGI (MDA-MB-231 breast) [µM] | TGI (OVCAR-5 ovarian) [µM] | TGI (MOLT-4 leukemia) [µM] | TGI (HL-60(TB) leukemia) [µM] | TGI (EKVX NSCLC) [µM] | TGI (786-0 renal) [µM] | TGI (BT-549 breast) [µM] | TGI (HCC-2998 colon) [µM] | TGI (CCRF-CEM leukemia) [µM] | TGI (NCI-H522 lung) [µM] | TGI (NCI-H460 lung) [µM] | TGI (OVCAR-8 ovarian) [µM] | TGI (A549 NSCLC) [µM] | TGI (SR leukemia) [µM] | TGI (HOP-92 NSCLC) [µM] | TGI (A498 renal) [µM] | TGI (T-47D breast) [µM]
O=c1[nH]cnc2c1ncn2C1SC(CO)C(O)C1O (stereo not given) | > 100 | > 100 | > 100 | > 100 | > 100 | > 100 | > 100 | > 100 | > 100 | > 100 | > 100 | > 100 | > 100 | > 100 | > 100 | > 100 | > 100 | > 100 | > 100 | > 100
O=C(O)c1nc2cc(C(F)(F)F)ccc2[nH]c1=O | > 100 | > 100 | > 100 | > 100 | > 100 | > 100 | > 100 | > 100 | > 100 | > 100 | > 100 | > 100 | > 100 | > 100 | > 100 | > 100 | > 100 | > 100 | > 100 | > 100
Cc1ccc(N=Nc2c(C)nn(C(=O)CC(=O)Nc3ccc(Cl)cc3)c2C)cc1C | > 100 | > 100 | > 100 | > 100 | > 100 | 66 | 56 | > 100 | > 100 | > 100 | > 100 | 71 | > 100 | > 100 | > 100 | > 100 | 39.7 | 64.3 | > 100 | > 100
O=C1CSC(c2ccccc2[N+](=O)[O-])N1c1ccc(-n2c(-c3ccccc3)nc3ccccc3c2=O)cc1 (stereo not given) | > 100 | > 100 | 64.3 | > 100 | > 100 | > 100 | > 100 | > 100 | > 100 | > 100 | > 100 | > 100 | > 100 | > 100 | > 100 | > 100 | > 100 | 60.2 | > 100 | 98.4
Nc1ccc(-c2nc3ccccc3s2)cc1I | > 100 | > 100 | > 100 | > 100 | > 100 | > 46.4 | > 100 | > 100 | > 100 | > 100 | > 100 | > 46.4 | > 100 | > 100 | > 100 | > 100 | > 100 | > 54.5 | > 90.8 | > 100
CC(=O)O[C@H]1CC[C@@]2(C)C(=CC[C@H]3[C@@H]4C/C(=C\c5ccncc5)[C@H](OC(C)=O)[C@@]4(C)CC[C@@H]32)C1 | 33.6 | 25.8 | 19.5 | 41.1 | 36.6 | 13.9 | 16.7 | 36.3 | 23.3 | 10.9 | 26.3 | 11.2 | 18.5 | 24.4 | 34.5 | 29.8 | 9.19 | 19.7 | 26.7 | 38.5
CSc1n[nH]c2n[nH]c(C)c12 | > 100 | > 100 | > 100 | > 100 | > 100 | > 100 | > 100 | > 100 | > 100 | > 100 | > 100 | > 100 | > 100 | > 100 | > 100 | > 100 | > 100 | > 100 | > 100 | > 100
